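In this assay, cells in 96-well plates receive the compound at five concentrations for 48 hours. Endpoints are linearly interpolated between the surrounding concentrations. At the GI50, growth is halved. TGI: total growth inhibition.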

Assay in all cases: NCI anticancer screen, dose series, 48 h
Test [1] relates to A498 renal.
In test [2] the test system is SR leukemia.
The test system of test [3] is HCC-2998 colon.
Test [4] relates to MALME-3M melanoma.
Test [5] deals with OVCAR-4 ovarian.
In test [6] the test system is SF-295 CNS.
The subject of test [7] is NCI-H460 lung.
Test [8] has as its system SF-268 CNS.
The subject of test [9] is PC-3 prostate.
The test system of test [10] is DU-145 prostate.

Consider `COc1ccc2nc3cccc(C(=O)NCCN(C)C)c3nc2c1`, for which the TGI in test [1] was 3.34 µM; in test [2], more than 100 µM; in [3], 6.16 µM; in [4] it was 2.69 µM; in test [5] it was 8.72 µM; in [6], more than 22.8 µM.
In the case of `CCOC(=O)/N=c1/nc(N(C)C)ss1`, the TGI in test [1], in test [2], in [3], in test [4], in test [5] and in [6] was more than 100 µM each time. In addition, the TGI in [7] and in [8] was more than 100 µM in each case.
For `NCP(=O)(O)OCC(=O)O`, the TGI in [1], in test [2], in [4], in test [5], in [6] and in [7] was more than 100 µM in each case. In test [8], this molecule registered a TGI of more than 100 µM.
Take `Nc1ccc(C(=O)N/C(=C\c2cccc([N+](=O)[O-])c2)c2nc3c4c(ccc3[nH]2)C(=O)c2ccccc2C4=O)cc1`: the TGI in [1] is 57.7 µM; in test [3], more than 100 µM; in [4], more than 100 µM; in test [5] it was 43.4 µM; in test [6], more than 100 µM; in [7], more than 100 µM. The molecule further gave a TGI in [8] of more than 100 µM.
For `O=C(NCCCCOCC#Cc1ccccc1C#CCS(=O)(=O)c1ccccc1)c1cc2ccccc2[nH]1`, the GI50 in [1] was 25.8 µM; in test [9], 7.1 µM; in [3], 12 µM; in [4], 7.85 µM; in test [5], 5.56 µM; in test [6], 15.9 µM. The GI50 in [10] was 18.1 µM; in test [7], 14.4 µM; in [8], 12.4 µM. The TGI in test [1] was more than 50 µM; in test [9] it was 36.5 µM; in test [3], 32.4 µM; in test [4] it was 24.1 µM; in test [5], 22.7 µM; in [6], more than 44.7 µM. Also, the TGI in test [10] is more than 50 µM; in test [7], more than 50 µM; in test [8], more than 43.1 µM.
For `CCOC(=S)SCN1C(=O)c2ccccc2S1(=O)=O`, the GI50 in test [1] was 19.8 µM; in test [9] it was 33 µM; in test [3] it was 16.2 µM; in test [4], 1.94 µM; in test [5] it was 1.67 µM; in test [6], 18 µM. Besides, the GI50 in test [10] is 16.5 µM; in test [7] it was 45.4 µM; in [8] it was 29.5 µM. For the same molecule, the TGI in test [1] is 42 µM; in [9], more than 100 µM; in [3], 29.8 µM; in test [4], 8.76 µM; in [5], 3.87 µM; in [6], 59.2 µM. For the same molecule, the TGI in test [10] is 34.2 µM; in test [7], more than 100 µM; in [8] it was more than 100 µM.
As to `Nc1c(-c2nc3ccccc3[nH]2)sc(=S)n1-c1ccc(Cl)cc1`, the TGI in test [1] is 88.2 µM; in test [3], 48.8 µM; in test [4], more than 100 µM; in test [5] it was 40.4 µM; in test [6], 43.6 µM; in [8], 54.9 µM.
Regarding `CCOC(=O)NC(=O)c1c[nH]c(=O)[nH]c1=O`, the TGI in [1], in [2], in test [3], in test [4], in test [5] and in [6] was more than 100 µM in each case. In test [7], this molecule displayed a TGI of more than 100 µM.
Regarding `C1C[OH+]CC[OH+]CC[OH+]CC[OH+]CC[OH+]CC[OH+]1.[Cl-].[Nb+5]`, the GI50 in test [1], in [3], in test [4], in test [5], in test [6] and in test [7] was more than 100 µM each time. The GI50 in test [8] was more than 100 µM. In addition, the TGI in test [1], in test [3], in [4], in test [5], in test [6] and in test [7] was more than 100 µM in each case. Besides, the TGI in test [8] is more than 100 µM.
Take `CN(C)CC1CCCC/C1=N/OC(=O)c1ccc(Cl)c(Cl)c1` (stereo unspecified): the TGI in test [1], in test [2], in test [3], in [4], in test [5] and in [6] was more than 100 µM each time. The TGI in test [7] and in test [8] was more than 100 µM throughout.
Take `Nc1nc(N)c(-c2ccccc2)c(CCC(=O)Nc2ccc(Cl)cc2)n1`: the TGI in [1], in test [2], in test [3], in test [4], in [5] and in test [6] was more than 100 µM each time. For the same molecule, the TGI in [7] and in test [8] was more than 100 µM each time.
With `CC(=O)N1CCN(CCOc2ccc(C3CCN(C4=Nn5c(nnc5C(F)(F)F)CC4)CC3)cc2)CC1`, the GI50 is 12.8 µM in test [1]; 7.87 µM in [9]; 21.6 µM in [3]; 9.89 µM in test [4]; 8.55 µM in test [5]; 12.2 µM in test [6]. The figures for the GI50 in test [10], in test [7] and in [8] were 63 µM, 30.9 µM and 77.9 µM, respectively. The TGI in [1] was more than 89.8 µM; in test [9] it was more than 100 µM; in test [3], more than 100 µM; in test [4] it was 99.6 µM; in test [5], more than 100 µM; in test [6], more than 85.9 µM. The TGI in test [10], in [7] and in [8] was more than 100 µM each time.
With `CC(C)(C)OC(=O)N1N=NC2C3OC(CC3=O)C21` (stereo unspecified), the TGI in [1], in [2], in test [3], in [4], in test [7] and in test [8] was more than 100 µM each time.
